Patent US20070010897A1, “Immunochemically modified and sterilized xenografts and allografts” (priority 2005, published 2007)

Tests used:
Porcine Parvovirus = experiment: Viral inactivation test, Porcine Parvovirus; settings: Porcine Parvovirus (NEnv./DNA); single process step (glutaraldehyde or E-beam 17.8 kGy)
Reovirus 3 = experiment: Viral inactivation test, Reovirus 3; settings: Reovirus 3 (NEnv./RNA); single process step (glutaraldehyde or E-beam 17.8 kGy)

For O=CCCCC=O [Glutaraldehyde, glutaraldehyde], the “Log10 Reduction” value (Porcine Parvovirus) was 1.91 Log10 and the “Log10 Reduction” value (Reovirus 3) was 4.24 Log10.
